1 compound from ChEMBL document CHEMBL5236615, “Discovery of Novel N-Heterocyclic-Fused Deoxypodophyllotoxin Analogues as Tubulin Polymerization Inhibitors Targeting the Colchicine-Binding Site for Cancer Treatment” (J Med Chem, 2022) can be followed below.

Active and inactive are the calls of the source. The rule behind the calls is not given here.

A short description of series [1]: Clearance in Sprague-Dawley rat at 10 mg/kg, iv measured upto 8 hrs by LC/MS/MS analysis. Format: ADME, organism-based. The following applies: in vivo.
Series [2] can be described thus: Antitumor activity against paclitaxel-resistant human MCF7/TxR cells xenografted in Balb/c mouse assessed as tumor growth inhibition at 10 mg/kg, ip administered for every 2 days for 21 days. The conditions noted are these: 504 h, time 21 day, read-out: TGI. The series is classed as functional. On the technique in general: In xenograft studies the graft and the host belong to different species.

Series [3] in a line: Antitumor activity against paclitaxel-resistant human MCF7/TxR cells xenografted in Balb/c mouse assessed as tumor growth inhibition at 20 mg/kg, ip administered for every 2 days for 21 days. The following applies: 504 h, time 21 day, read-out: TGI. Format: functional.
Series [4] deals with MCF7. The series is described as follows: Induction of cell cycle arrest in human MCF7 cells assessed as upregulation of Bcl2 phosphorylation at […] at 5 to 20 nM in presence of roscovitine measured after 24 hrs by Western blot analysis. The series is classed as functional, cell-based. The conditions noted are these: dose 5-20 nM.
A short description of series [5]: Volume of distribution at steady sate in Sprague-Dawley rat at 10 mg/kg, iv measured upto 8 hrs by LC/MS/MS analysis. The series is classed as ADME, organism-based. The conditions noted are these: in vivo, read-out: Vdss.
For series [6], the system named is MCF7. Put plainly: Induction of apoptosis in human MCF7 cells assessed as upregulation of p-Bim L protein expression at 5 to 20 nM in presence of roscovitine measured after 24 hrs by Western blot analysis. Format: functional, cell-based. The conditions noted are these: dose 5-20 nM.

Compound `COc1c(Cl)cc([C@@H]2c3cc4c(cc3C[C@H]3C(=O)NC(=O)N23)OCCO4)cc1Cl` displayed a CL in series [1] of 65 mL/min/kg. Besides, the inhibition in vivo at 10 mg/kg in series [2] was 49.2%. Further, in series [3], the inhibition in vivo at 20 mg/kg was found to be 67.7%. Moreover, the outcome with MCF7 [4] and in the series with MCF7 [6] was inactive. Further, the Vd in series [5] stood at 6.99 L/kg.
